Measurements as given in US6737383B1, “Herbicidal oxadiazolidines” (priority 1999, dated 2004).

What was measured:
morningglory = test: Test B pre/postemergence morningglory; format: in vivo, Ipomoea hederacea
Outline: (§1)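 Test chemicals in a non-phytotoxic solvent mixture with surfactant were sprayed preemergence onto planted seeds and postemergence onto plants 2 to 18 cm tall (1- to 4-leaf stage). After twelve to sixteen days in a greenhouse, injury was visually rated against untreated controls from 0 (no effect) to 10 (complete control).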

corn = test: Test B pre/postemergence corn; format: in vivo, Zea mays
Outline: as §1

cocklebur = test: Test B pre/postemergence cocklebur; format: in vivo, Xanthium strumarium
Outline: as §1

sugar beet = test: Test B pre/postemergence sugar beet; format: in vivo, Beta vulgaris
Outline: as §1

rape = test: Test B pre/postemergence rape; format: in vivo, Brassica napus
Outline: as §1

pigweed = test: Test B pre/postemergence pigweed; format: in vivo, Amaranthus retroflexus
Outline: as §1

bedstraw = test: Test B pre/postemergence bedstraw; format: in vivo, Galium aparine
Outline: as §1

wild oat = test: Test B pre/postemergence wild oat; format: in vivo, Avena fatua
Outline: as §1

rice = test: Test B flood test rice; format: in vivo, Oryza sativa
Outline: (§2)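 Each value is a visual injury score relative to controls, with 10 meaning complete control and 0 no effect. Evaluation took place twelve to sixteen days after the 2-leaf-stage plants were treated and kept in the greenhouse.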

smallflower flatsedge = test: Test B flood test smallflower flatsedge; format: in vivo, Cyperus difformis
Outline: as §2

soybean = test: Test B pre/postemergence soybean; format: in vivo, Glycine max
Outline: as §1

wheat = test: Test B pre/postemergence wheat; format: in vivo, Triticum aestivum
Outline: as §1

velvetleaf = test: Test B pre/postemergence velvetleaf; format: in vivo, Abutilon theophrasti
Outline: as §1

giant foxtail = test: Test B pre/postemergence giant foxtail; format: in vivo, Setaria faberii
Outline: as §1

blackgrass = test: Test B pre/postemergence blackgrass; format: in vivo, Alopecurus myosuroides
Outline: as §1

surinam grass = test: Test B pre/postemergence surinam grass; format: in vivo, Brachiaria decumbens
Outline: as §1

[1] = Postemergence, Rate 62 g/ha, scale 0 to 10, 0 is no effect, 10 is complete control
[2] = Postemergence, Rate 250 g/ha, scale 0 to 10, 0 no effect, 10 complete control
[3] = Postemergence, Rate 1000 g/ha, scale 0 to 10 (0 no effect, 10 complete control)
[4] = Preemergence, Rate 31 g/ha, visual rating, scale 0 to 10 (0 no effect, 10 complete control)
[5] = Preemergence, Rate 62 g/ha, scale 0 to 10, 0 is no effect, 10 is complete control
[6] = Preemergence, Rate 125 g/ha, scale 0 to 10 (0 no effect, 10 complete control)
[7] = Preemergence, Rate 250 g/ha, scale of 0 to 10 where 0 is no effect and 10 is complete control
[8] = Preemergence, Rate 500 g/ha, scale 0 (no effect) to 10 (complete control)
[9] = Rate 31 g/ha, Postemergence, scale 0 to 10
[10] = Rate 125 g/ha, Postemergence, scale 0 to 10, 0 no effect, 10 complete control
[11] = Rate 500 g/ha, Postemergence, 0 to 10 scale (0 no effect, 10 complete control)
[12] = Rate 1000 g/ha, Preemergence, scale 0 to 10 (0 no effect, 10 complete control)
[13] = Rate 125 g/ha, Postemergence section (flood test species), scale 0 to 10, 0 no effect, 10 complete control
[14] = flood test, listed under Postemergence, Rate 250 g/ha, scale 0 to 10, 0 no effect, 10 complete control

Cc1ccccc1-n1c(=O)on(C(=O)N(c2ccc(F)cc2)C(C)C)c1=O [Compound 4]
Morningglory plant response rating (morningglory; [1]): 0 | Morningglory plant response rating (morningglory; [2]): 3 | Morningglory plant response rating (morningglory; [3]): 3 | Morningglory plant response rating (morningglory; [4]): 0 | Plant response rating, Morningglory (morningglory; [5]): 0 | Plant response rating, Morningglory (morningglory; [6]): 0 | Plant response rating, Morningglory (morningglory; [7]): 0 | Morningglory plant response rating (morningglory; [8]): 0 | Morningglory plant response rating (morningglory; [9]): 0 | Morningglory plant response rating (morningglory; [10]): 2 | Morningglory plant response rating (morningglory; [11]): 3 | Plant response rating, Morningglory (morningglory; [12]): 0 | Corn plant response rating (corn; [1]): 0 | Corn plant response rating (corn; [2]): 0 | Corn plant response rating (corn; [3]): 0 | Corn plant response rating (corn; [4]): 0 | Plant response rating, Corn (corn; [5]): 0 | Plant response rating, Corn (corn; [6]): 0 | Plant response rating, Corn (corn; [7]): 0 | Corn plant response rating (corn; [8]): 0 | Corn plant response rating (corn; [9]): 0 | Corn plant response rating (corn; [10]): 0 | Corn plant response rating (corn; [11]): 0 | Plant response rating, Corn (corn; [12]): 0 | Cocklebur plant response rating (cocklebur; [1]): 0 | Cocklebur plant response rating (cocklebur; [2]): 6 | Cocklebur plant response rating (cocklebur; [3]): 8 | Cocklebur plant response rating (cocklebur; [4]): 0 | Plant response rating, Cocklebur (cocklebur; [5]): 0 | Plant response rating, Cocklebur (cocklebur; [6]): 0 | Plant response rating, Cocklebur (cocklebur; [7]): 0 | Cocklebur plant response rating (cocklebur; [8]): 0 | Cocklebur plant response rating (cocklebur; [9]): 0 | Cocklebur plant response rating (cocklebur; [10]): 2 | Cocklebur plant response rating (cocklebur; [11]): 6 | Plant response rating, Cocklebur (cocklebur; [12]): 0 | Sugarbeets plant response rating (sugar beet; [1]): 0 | Sugarbeets plant response rating (sugar beet; [2]): 3 | Sugarbeets plant response rating (sugar beet; [3]): 4 | Sugarbeets plant response rating (sugar beet; [4]): 0 | Plant response rating, Sugarbeets (sugar beet; [5]): 0 | Plant response rating, Sugarbeets (sugar beet; [6]): 7 | Plant response rating, Sugarbeets (sugar beet; [7]): 8 | Sugarbeets plant response rating (sugar beet; [8]): 3 | Sugarbeets plant response rating (sugar beet; [10]): 2 | Plant response rating, Sugarbeets (sugar beet; [12]): 4 | Rape plant response rating (rape; [1]): 0 | Rape plant response rating (rape; [2]): 0 | Rape plant response rating (rape; [3]): 3 | Rape plant response rating (rape; [4]): 0 | Plant response rating, Rape (rape; [5]): 0 | Plant response rating, Rape (rape; [6]): 0 | Plant response rating, Rape (rape; [7]): 6 | Rape plant response rating (rape; [8]): 0 | Rape plant response rating (rape; [9]): 0 | Rape plant response rating (rape; [10]): 0 | Rape plant response rating (rape; [11]): 2 | Plant response rating, Rape (rape; [12]): 3 | Redroot pigweed plant response rating (pigweed; [1]): 0 | Redroot pigweed plant response rating (pigweed; [2]): 5 | Redroot pigweed plant response rating (pigweed; [3]): 8 | Redroot pigweed plant response rating (pigweed; [4]): 0 | Plant response rating, Redroot pigweed (pigweed; [5]): 2 | Plant response rating, Redroot pigweed (pigweed; [6]): 5 | Plant response rating, Redroot pigweed (pigweed; [7]): 8 | Redroot pigweed plant response rating (pigweed; [9]): 0 | Redroot pigweed plant response rating (pigweed; [10]): 4 | Redroot pigweed plant response rating (pigweed; [11]): 7 | Plant response rating, Redroot pigweed (pigweed; [12]): 8 | Bedstraw plant response rating (bedstraw; [1]): 0 | Bedstraw plant response rating (bedstraw; [2]): 7 | Bedstraw plant response rating (bedstraw; [3]): 8 | Bedstraw plant response rating (bedstraw; [4]): 0 | Plant response rating, Bedstraw (bedstraw; [5]): 0 | Plant response rating, Bedstraw (bedstraw; [6]): 1 | Plant response rating, Bedstraw (bedstraw; [7]): 4 | Bedstraw plant response rating (bedstraw; [8]): 4 | Bedstraw plant response rating (bedstraw; [9]): 0 | Bedstraw plant response rating (bedstraw; [10]): 5 | Bedstraw plant response rating (bedstraw; [11]): 7 | Plant response rating, Bedstraw (bedstraw; [12]): 6 | Wild oats plant response rating (wild oat; [1]): 0 | Wild oats plant response rating (wild oat; [2]): 0 | Wild oats plant response rating (wild oat; [3]): 0 | Wild oats plant response rating (wild oat; [4]): 0 | Plant response rating, Wild oats (wild oat; [6]): 0 | Plant response rating, Wild oats (wild oat; [7]): 4 | Wild oats plant response rating (wild oat; [8]): 7 | Wild oats plant response rating (wild oat; [10]): 0 | Plant response rating, Wild oats (wild oat; [12]): 8 | Rice plant response rating (rice; [1]): 0 | Rice plant response rating (rice; [3]): 0 | Rice plant response rating (rice; Rate 31 g/ha, Postemergence section (flood test species), scale 0 to 10): 0 | Rice plant response rating (rice; [13]): 0 | Rice plant response rating (rice; Rate 500 g/ha, Postemergence section of Table B, 0 to 10 scale (0 no effect, 10 complete control)): 0 | Rice plant response rating (rice; [14]): 0 | S. Flatsedge plant response rating (smallflower flatsedge; [1]): 0 | S. Flatsedge plant response rating (smallflower flatsedge; [3]): 4 | S. Flatsedge plant response rating (smallflower flatsedge; [13]): 0 | S. Flatsedge plant response rating (smallflower flatsedge; [14]): 2 | Soybean plant response rating (soybean; [1]): 2 | Soybean plant response rating (soybean; [2]): 4 | Soybean plant response rating (soybean; [3]): 5 | Soybean plant response rating (soybean; [4]): 0 | Plant response rating, Soybean (soybean; [5]): 0 | Plant response rating, Soybean (soybean; [6]): 0 | Plant response rating, Soybean (soybean; [7]): 0 | Soybean plant response rating (soybean; [8]): 0 | Soybean plant response rating (soybean; [10]): 4 | Plant response rating, Soybean (soybean; [12]): 1 | Wheat plant response rating (wheat; [1]): 0 | Wheat plant response rating (wheat; [2]): 0 | Wheat plant response rating (wheat; [3]): 0 | Wheat plant response rating (wheat; [4]): 0 | Plant response rating, Wheat (wheat; [5]): 0 | Plant response rating, Wheat (wheat; [6]): 0 | Plant response rating, Wheat (wheat; [7]): 0 | Wheat plant response rating (wheat; [8]): 0 | Wheat plant response rating (wheat; [10]): 0 | Plant response rating, Wheat (wheat; [12]): 0 | Velvetleaf plant response rating (velvetleaf; [1]): 0 | Velvetleaf plant response rating (velvetleaf; [2]): 3 | Velvetleaf plant response rating (velvetleaf; [3]): 7 | Velvetleaf plant response rating (velvetleaf; [4]): 0 | Plant response rating, Velvetleaf (velvetleaf; [5]): 0 | Plant response rating, Velvetleaf (velvetleaf; [6]): 0 | Plant response rating, Velvetleaf (velvetleaf; [7]): 0 | Velvetleaf plant response rating (velvetleaf; [8]): 0 | Velvetleaf plant response rating (velvetleaf; [10]): 3 | Plant response rating, Velvetleaf (velvetleaf; [12]): 0 | Giant foxtail plant response rating (giant foxtail; [1]): 0 | Giant foxtail plant response rating (giant foxtail; [2]): 3 | Giant foxtail plant response rating (giant foxtail; [3]): 6 | Giant foxtail plant response rating (giant foxtail; [4]): 8 | Plant response rating, Giant foxtail (giant foxtail; [5]): 9 | Plant response rating, Giant foxtail (giant foxtail; [6]): 9 | Plant response rating, Giant foxtail (giant foxtail; [7]): 10 | Giant foxtail plant response rating (giant foxtail; [8]): 10 | Giant foxtail plant response rating (giant foxtail; [9]): 0 | Giant foxtail plant response rating (giant foxtail; [10]): 5 | Giant foxtail plant response rating (giant foxtail; [11]): 4 | Plant response rating, Giant foxtail (giant foxtail; [12]): 10 | Blackgrass plant response rating (blackgrass; [1]): 0 | Blackgrass plant response rating (blackgrass; [2]): 5 | Blackgrass plant response rating (blackgrass; [3]): 6 | Blackgrass plant response rating (blackgrass; [4]): 0 | Plant response rating, Blackgrass (blackgrass; [5]): 0 | Plant response rating, Blackgrass (blackgrass; [6]): 6 | Plant response rating, Blackgrass (blackgrass; [7]): 8 | Blackgrass plant response rating (blackgrass; [8]): 8 | Blackgrass plant response rating (blackgrass; [9]): 0 | Blackgrass plant response rating (blackgrass; [10]): 4 | Blackgrass plant response rating (blackgrass; [11]): 6 | Plant response rating, Blackgrass (blackgrass; [12]): 10 | B. signalgrass plant response rating (surinam grass; [1]): 0 | B. signalgrass plant response rating (surinam grass; [2]): 0 | B. signalgrass plant response rating (surinam grass; [3]): 4 | B. signalgrass plant response rating (surinam grass; [4]): 0 | Plant response rating, B. signalgrass (surinam grass; [5]): 0 | Plant response rating, B. signalgrass (surinam grass; [6]): 7 | Plant response rating, B. signalgrass (surinam grass; [7]): 8 | B. signalgrass plant response rating (surinam grass; [8]): 9 | B. signalgrass plant response rating (surinam grass; [9]): 0 | B. signalgrass plant response rating (surinam grass; [10]): 0 | B. signalgrass plant response rating (surinam grass; [11]): 2 | Plant response rating, B. signalgrass (surinam grass; [12]): 10
